Experiment [1] has as its system circulating lymphocytes. Put plainly: Assessment of in vivo efficacy: circulating lymphocytes after oral administration. The note with it: 3 h after oral administration of 10 mg/kg, male Wistar rats, compared to vehicle-treated group. On the set-up: species or system normotensive male Wistar rats. As for the experimental part:
The efficacy of the compounds of formula (I) is assessed by measuring the circulating lymphocytes after oral administration of 3 to 30 mg/kg of a compound of formula (I) to normotensive male Wistar rats. The animals are housed in climate-controlled conditions with a 12 h-light/dark cycle, and have free access to normal rat chow and drinking water.
Blood is collected before and 3, 6 and 24 h after drug administration. Full blood is subjected to hematology using Advia Hematology system (Bayer Diagnostics, Zurich, Switzerland).
All data are presented as mean±SEM. Statistical analyses are performed by analysis of variance (ANOVA) using Statistica (StatSoft) and the Student-Newman-Keuls procedure for multiple comparisons. The null hypothesis is rejected when p<0.05.

For experiment [2], the target named is recombinant human S1P1 receptor (Homo sapiens, UniProt P21453). Kind of experiment: GTPγS assay to determine EC50 values. The note with it: 35S-GTPγS binding, membrane preparations of CHO cells expressing recombinant human S1P1 receptor. Type of experiment: biochemical. As for the experimental part:
GTPγS binding assays are performed in 96 well microtiter plates (Nunc, 442587) in a final volume of 200 μl, using membrane preparations of CHO cells expressing recombinant human S1P1 receptor. Assay conditions are 20 mM Hepes (Fluka, 54461), 100 mM NaCl (Fluka, 71378), 5 mM MgCl2 (Fluka, 63064), 0.1% BSA (Calbiochem, 126609), 1 μM GDP (Sigma, G-7127), 2.5% DMSO (Fluka, 41644), 50 pM ^355-GTPγS (Amersham Biosciences, SJ1320). The pH is 7.4. Test compounds are dissolved and diluted in 100% DMSO and pre-incubated at room temperature for 30 min in 150 μl of the above assay buffer, in the absence of ^355-GTPγS. After addition of 50 μl of ^355-GTPγS, the assay is incubated for 1 h at rt. The assay is terminated by transfer of the reaction mixture to a Multiscreen plate (Millipore, MAHFC1H60) using a cell harvester from Packard Biosciences, and the plates are washed with ice-cold 10 mM Na2HPO4/NaH2PO4 (70%/30%), dried, sealed at the bottom and, after addition of 25 μl MicroScint20 (Packard Biosciences, order #6013621), sealed on the top. Membrane-bound ^35S-GTPγS is measured with a TopCount from Packard Biosciences.
EC50 is the concentration of agonist inducing 50% of the maximal specific ^35S-GTPγS binding. Specific binding is determined by subtracting non-specific binding from maximal binding. Maximal binding is the amount of cpm bound to the Multiscreen plate in the presence of 10 μM of S1P. Non-specific binding is the amount of binding in the absence of an agonist in the assay.
For orientation: GTPγS is a poorly hydrolysed GTP analogue; its binding reports G protein activation.

Chain of recombinant human S1P1 receptor (P21453 whole entry): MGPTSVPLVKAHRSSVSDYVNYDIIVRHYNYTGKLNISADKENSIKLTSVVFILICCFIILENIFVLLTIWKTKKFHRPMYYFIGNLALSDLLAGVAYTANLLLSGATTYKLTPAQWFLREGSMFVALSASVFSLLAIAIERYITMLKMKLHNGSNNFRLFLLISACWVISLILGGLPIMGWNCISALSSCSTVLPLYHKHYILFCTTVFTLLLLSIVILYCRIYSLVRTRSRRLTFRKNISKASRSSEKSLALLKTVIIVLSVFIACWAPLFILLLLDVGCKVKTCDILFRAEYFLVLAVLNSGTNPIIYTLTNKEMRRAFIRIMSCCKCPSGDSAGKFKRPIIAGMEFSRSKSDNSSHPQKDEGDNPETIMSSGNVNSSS

The term EC50 denotes the concentration at which the effect is half-maximal. `CCCCN(C)Cc1cc(C)cc(-c2nc(-c3cc(C)c(OC[C@@H](O)CNC(=O)CO)c(CC)c3)no2)c1` [Example 18, N—{(S)-3-[4-(5-{3-[(butyl-methyl-amino)-methyl]-5-methyl-phenyl}-[1,2,4]oxadiazol-3-yl)-2-ethyl-6-methyl-phenoxy]-2-hydroxy-propyl}-2-hydroxy-acetamide]: the Lymphocyte counts in experiment [1] is on record as −63.0%. Moreover, the EC50 in experiment [2] was determined as 3.3 nM.
For `CCc1cc(-c2noc(-c3cc(C)cc(CN4CCCC4)c3)n2)cc(C)c1OC[C@@H](O)CNC(=O)CO` [Example 22, N—((S)-3-{2-ethyl-6-methyl-4-[5-(3-methyl-5-pyrrolidin-1-ylmethyl-phenyl)-[1,2,4]oxadiazol-3-yl]-phenoxy}-2-hydroxy-propyl)-2-hydroxy-acetamide], the Lymphocyte counts in experiment [1] was −61.0%. In addition, the half-maximal effective concentration (EC50) in experiment [2] came out at 7 nM.
Regarding `CCc1cc(-c2nc(-c3cc(C)c(OC[C@@H](O)CNC(=O)CO)c(CC)c3)no2)ccc1CN(C)C` [Example 99, N—((S)-3-{4-[5-(4-dimethylaminomethyl-3-ethyl-phenyl)-[1,2,4]oxadiazol-3-yl]-2-ethyl-6-methyl-phenoxy}-2-hydroxy-propyl)-2-hydroxy-acetamide], the Lymphocyte counts in experiment [1] was −61.0%.
For `CCc1cc(-c2noc(-c3cc(C)cc(CN(C)CC)c3)n2)cc(C)c1OC[C@@H](O)CNC(=O)CO` [Example 16, N—{(S)-3-[2-ethyl-4-(5-{3-[(ethyl-methyl-amino)-methyl]-5-methyl-phenyl}-[1,2,4]oxadiazol-3-yl)-6-methyl-phenoxy]-2-hydroxy-propyl}-2-hydroxy-acetamide], the Lymphocyte counts in experiment [1] is reported as −62.1%. Also, in experiment [2], the EC50 amounted to 2.7 nM.
